The text below walks through data of ChEMBL document CHEMBL1145087 (J Med Chem, 2003).

The term IC50 denotes the midpoint of a concentration-inhibition curve. A high value points to weaker potency in that assay.

The target in the assay is T1, Androgen receptor (Homo sapiens, UniProt P10275).
T1 sequence (P10275 whole entry): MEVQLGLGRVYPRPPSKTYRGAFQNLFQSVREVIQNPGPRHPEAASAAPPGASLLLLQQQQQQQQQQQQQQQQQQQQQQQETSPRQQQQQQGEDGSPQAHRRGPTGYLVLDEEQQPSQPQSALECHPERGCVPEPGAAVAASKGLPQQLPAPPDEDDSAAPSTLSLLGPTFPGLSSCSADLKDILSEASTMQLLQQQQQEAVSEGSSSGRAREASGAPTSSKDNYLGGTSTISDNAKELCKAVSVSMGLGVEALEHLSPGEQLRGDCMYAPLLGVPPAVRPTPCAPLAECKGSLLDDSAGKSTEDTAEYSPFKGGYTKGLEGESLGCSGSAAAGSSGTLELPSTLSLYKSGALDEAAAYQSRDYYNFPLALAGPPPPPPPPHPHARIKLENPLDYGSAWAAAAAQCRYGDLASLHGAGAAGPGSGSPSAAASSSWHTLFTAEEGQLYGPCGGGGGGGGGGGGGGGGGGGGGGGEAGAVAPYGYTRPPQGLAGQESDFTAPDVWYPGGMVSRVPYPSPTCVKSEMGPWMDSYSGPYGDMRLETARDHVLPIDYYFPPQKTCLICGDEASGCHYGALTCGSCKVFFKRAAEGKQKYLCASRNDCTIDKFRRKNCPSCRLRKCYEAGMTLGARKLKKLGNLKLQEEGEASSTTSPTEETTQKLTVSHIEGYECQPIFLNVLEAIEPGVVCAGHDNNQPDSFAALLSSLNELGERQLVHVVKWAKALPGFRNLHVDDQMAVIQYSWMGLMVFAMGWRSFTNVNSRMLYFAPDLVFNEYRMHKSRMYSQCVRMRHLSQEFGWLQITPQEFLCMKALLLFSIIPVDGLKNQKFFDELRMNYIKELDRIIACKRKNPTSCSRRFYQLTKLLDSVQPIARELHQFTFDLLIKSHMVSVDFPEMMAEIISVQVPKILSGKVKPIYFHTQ
Description: Inhibition of human androgen receptor at 10e-12 to 10e-5 M

`CC1=CC(C)(C)Nc2ccc3c(c21)/C(=C/c1ccccc1)Oc1c(F)cccc1-3` had a concentration for half-maximal inhibition (IC50) of 0.9 µM.

Molecule `CC1=CC(C)(C)Nc2ccc3c(c21)/C(=C/c1ccsc1)Oc1ccc(F)cc1-3` registered an IC50 of 0.215 µM.
